According to patent publication US20230364109A1, “GANAXOLONE FOR USE IN TREATMENT OF SUPER REFRACTORY STATUS EPILEPTICUS” (MARINUS PHARMACEUTICALS, INC., priority 2020, published 2023):

Experiments:
[1] = test system: super refractory status epilepticus; details: for response of SRSE to treatment given before GNX: same patient, before pentobarbitol coma or during it (ACTH)
[2] = test system: patients with super refractory SE; details: Phase 3, randomized, double-blind, placebo-controlled; cited from earlier work
[3] = molecular target: T1, progesterone receptor (Homo sapiens, UniProt P06401); assay: activation of the progesterone receptor (hormonal activity); details: directly or via metabolic conversion
T1 sequence (P06401 1-933): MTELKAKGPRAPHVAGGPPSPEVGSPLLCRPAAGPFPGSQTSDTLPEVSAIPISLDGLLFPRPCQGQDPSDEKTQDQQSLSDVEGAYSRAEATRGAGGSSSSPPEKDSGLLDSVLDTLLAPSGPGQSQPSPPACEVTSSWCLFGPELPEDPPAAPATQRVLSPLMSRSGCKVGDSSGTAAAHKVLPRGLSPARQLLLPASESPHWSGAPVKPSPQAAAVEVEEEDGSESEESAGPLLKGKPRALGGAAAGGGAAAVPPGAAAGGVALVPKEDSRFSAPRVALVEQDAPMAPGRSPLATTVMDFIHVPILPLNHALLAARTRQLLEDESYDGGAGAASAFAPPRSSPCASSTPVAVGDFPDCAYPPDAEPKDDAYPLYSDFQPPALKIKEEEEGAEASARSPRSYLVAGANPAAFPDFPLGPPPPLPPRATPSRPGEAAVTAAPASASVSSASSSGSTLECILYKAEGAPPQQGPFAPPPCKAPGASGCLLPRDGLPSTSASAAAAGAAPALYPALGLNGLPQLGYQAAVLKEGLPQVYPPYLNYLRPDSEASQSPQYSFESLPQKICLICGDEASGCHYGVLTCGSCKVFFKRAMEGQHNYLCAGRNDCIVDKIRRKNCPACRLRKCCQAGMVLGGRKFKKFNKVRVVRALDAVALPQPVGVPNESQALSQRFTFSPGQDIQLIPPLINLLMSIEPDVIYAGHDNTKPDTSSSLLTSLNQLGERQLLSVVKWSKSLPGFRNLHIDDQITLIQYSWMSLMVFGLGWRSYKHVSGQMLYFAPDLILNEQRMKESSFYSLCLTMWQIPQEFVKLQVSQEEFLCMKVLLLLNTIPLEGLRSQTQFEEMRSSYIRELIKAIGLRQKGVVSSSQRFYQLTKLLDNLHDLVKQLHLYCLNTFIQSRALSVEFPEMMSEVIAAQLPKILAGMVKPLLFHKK
From the text: Ganaxolone (3α-hydroxy-3β-methyl-5α-pregnan-20-one) is a 3β-methylated synthetic analogue of the endogenous neurosteroid allopregnanolone with similar biological activity (Carter et al., (1997), The Journal of Pharmacology and Experimental Therapeutics, 280:1284-1295), but it is designed to not activate nuclear (classical) progesterone receptors.

[4] = toxicology studies in animals focusing on prenatal and neonatal development; assay type: in vivo
From the text: (§1) Ganaxolone has been administered to infants with severe forms of epilepsy as early as 4 months of age. In clinical trials involving administration of ganaxolone over several weeks, the study drug has been tapered off over a 1 to 2-week period.

[5] = safety in the ganaxolone clinical development program; assay type: in vivo, human
From the text: In the completed placebo-controlled Phase 1, 2, and 3 studies, 0.32% of subjects who received ganaxolone and 0.46% of subjects who received placebo developed elevated LFTs during the study (>3x ULN AST and/or ALT). A subject participating in the ganaxolone paediatric epilepsy study developed liver failure, which was not considered to be related to ganaxolone. The subject was diagnosed with short bowel syndrome, liver steatosis and IgG-cholangitis, which were considered to be the causal factors for the subject’s liver failure. There have been no other cases of Hy’s Law or liver failure in the ganaxolone development program. […] After cessation of the dosing, plasma ganaxolone levels are expected to drop rapidly, but it is possible that low sub-therapeutic levels persist for several days as ganaxolone is slowly released from tissues.
as §1

[6] = cited from earlier work
[7] = solubility of ganaxolone; assay type: physicochemical
Procedure: Ganaxolone is insoluble in water. […] Ganaxolone has a relatively long half-life - approximately 20 hours in human plasma following oral administration (Nohria, V. and Giller, E., Neurotherapeutics, (2007) 4(1): 102-105). Furthermore, ganaxolone has a short Tmax, which means that therapeutic blood levels are reached quickly.
Ganaxolone formulations suitable for parenteral administration in the methods of the present invention may comprise physiologically acceptable sterile aqueous or non-aqueous solutions, dispersions, suspensions or emulsions, and sterile powders for reconstitution into sterile injectable solutions or dispersions. Examples of suitable aqueous and non-aqueous carriers, diluents, solvents, or vehicles including water, ethanol, polyols (propylene glycol, polyethylene-glycol, glycerol, cremophor and the like), suitable mixtures thereof, vegetable oils (such as olive oil) and injectable organic esters such as ethyl oleate. Additionally, ganaxolone can be dissolved at concentrations of >1 mg/ml using water soluble beta cyclodextrins (e.g. beta-sulfobutyl-cyclodextrin and 2-hydroxypropylbetacyclodextrin). A particularly suitable cyclodextrin is a substituted-β-cyclodextrin is Captisol®. […]

[8] = test system: status epilepticus; assay: Case Report 1: IV to enteric GNX in a person with SE; assay type: in vivo, human
From the text: FIGS. 3A-3C show video EEGs in the patient described in Example 2 on day 1 (FIG. 3A), day 2 (FIG. 3B), and day 5 (FIG. 3C). […] Double banana bipolar montage: LFF 1 Hz, HFF 70 Hz; sensitivity, 15 µV/mm; time base, 30 mm/s. EEG, electroencephalogram; HFF, high-frequency filter; LFF, low-frequency filter.
A person with a history of sporadic primarily febrile and rare afebrile convulsive seizures in early childhood had been seizure-free for 10 years off medication until they began to have focal seizures with generalization. Seizure semiology was characterized by eye fluttering with rapid bilateral involvement at times with leftward head/eye deviation as clusters prior to generalization. They had recurrent seizures over the first three weeks and was admitted to an outside hospital for SE requiring intubation. […] They were transferred to the inpatient pediatric rehabilitation unit after being seizure-free for one month on 5 antiseizure medications (cannabidiol, perampanel, phenobarbital, lacosamide, lorazepam), pyridoxine, ketogenic diet, anakinra, and menstrual suppression.
A thorough infectious, metabolic, genetic, vascular and autoimmune evaluation was non-diagnostic. While in the inpatient rehabilitation unit they developed a fever of 41.7° C. and respiratory viral panel was positive for parainfluenza. SE returned requiring transfer to the ICU for midazolam and pentobarbital infusions. […] They were seizure-free for two days after drips were weaned before seizures returned prompting vagus nerve stimulator placement and a prolonged 2-week course of IV pentobarbital titrated to EEG burst suppression. As pentobarbital was weaned off, convulsive seizures returned.
They were granted E-IND approval for a trial of IV to enteric GNX. GNX was administered using an IV bolus followed by infusion over 4 days (with boluses as needed for breakthrough seizures): on day 1 pentobarbital was discontinued; by day 3 clinical and electrographic seizures stopped.
One month after ganaxolone initiation, the patient was transferred to inpatient rehabilitation services and they were discharged home 1 month later. They were weaned off the ketogenic diet, anakinra, and felbamate with minimal breakthrough clinical seizures (only in setting of intercurrent illness or decreasing ASMs). […] Patient continues to be on ganaxolone and 4 other ASMs (valproic acid, brivaracetam, lorazepam, perampanel). See, FIGS. 1, 2, and 3A-3C.

[9] = test system: γ-aminobutyric acid type A (GABAA) receptors; details: Carter et al 1997; cited from earlier work
[10] = test system: super refractory status epilepticus; assay: Case Report 3: IV-to-enteric ganaxolone in a person with super refractory status epilepticus (FIRES); assay type: in vivo, human
From the text: A previously healthy person presented with encephalopathy and fever and developed super refractory status epilepticus concordant with fever-induced refractory […] (FIRES). On administration, the patient presented in the emergency department (ED) with fever, abdominal pain, and encephalopathy. Patient was admitted to pediatric intensive care unit (PICU) and placed on video-electroencephalogram (vEEG). See, FIG. 4.
Immunomodulatory therapies with IV methylprednisolone and IVIG were initiated concomitantly.
After multiple ASMs, failed attempts to wean pentobarbital, and ketamine and midazolam infusions, they were treated under EIND approval for a trial of IV-to-enteric ganaxolone. Ganaxolone was administered on hospital day 17 using an IV bolus, followed by infusion over 6 days (with boluses as needed for breakthrough seizures) (FIG. 5). Midazolam was discontinued on day 2 of GNX IV protocol; ketamine was discontinued by day 8 with the assistance of phenobarbital loads and maintenance Anakinra was initiated on day 2 of GNX IV protocol (hospital day 19).

[11] = test system: CYP3A⅘; assay: metabolism and interaction with strong CYP inducers (in vitro data and human PK data)
[12] = test system: SE; assay: ganaxolone intravenous bolus plus continuous infusion in SE (inventors' earlier finding); assay type: in vivo; details: plasma concentration 500 ng/ml or higher for at least about 8 hours
From the text: As described and exemplified herein, the inventors believe that ganaxolone holds promise as an effective therapy for SRSE. […] However, as discussed above, SRSE patients are an extremely ill subset of patients in which SE continues or recurs despite therapy with anesthetic agents (e.g., midazolam, propofol, ketamine, or barbiturate). […] When this occurs, the patient is typically then re-administered anesthetic agents at doses to cause burst suppression and to induce coma. As such, patients are typically weaned off anesthetics very slowly and typically by reducing anesthetics by no more than about 20% per day.

## O=C1Nc2ccc(Cl)cc2C(c2ccccc2Cl)=NC1O (stereo not drawn) [lorazepam]
[1]
  response of SRSE to treatment given before GNX: No response

## CN1C(=O)CN=C(c2ccccc2)c2cc(Cl)ccc21 [diazepam]
[1]
  response of SRSE to treatment given before GNX: No response

## CC(=O)[C@H]1CC[C@H]2[C@@H]3CC[C@H]4C[C@H](O)CC[C@]4(C)[C@H]3CC[C@]12C [brexanolone]
[2]
  efficacy over placebo in SRSE: failed to show efficacy over placebo

## N#Cc1ccccc1-c1cc(-c2ccccn2)cn(-c2ccccc2)c1=O [perampanel]
[1]
  response of SRSE to treatment given before GNX: No response

## Cc1ncc2n1-c1ccc(Cl)cc1C(c1ccccc1F)=NC2 [midazolam]
[1]
  response of SRSE to treatment given before GNX: No response

## CCCC(CCC)C(=O)O [valproic acid]
[1]; female, human, in vivo
  serum level: 106 µg/mL

## CC(=O)[C@H]1CC[C@H]2[C@@H]3CC[C@H]4C[C@](C)(O)CC[C@]4(C)[C@H]3CC[C@]12C [ganaxolone, 3α-hydroxy-3β-methyl-5α-pregnan-20-one]
[3]
  activation of the progesterone receptor: does not activate the progesterone receptor directly or indirectly
[4]
  prenatal and neonatal developmental toxicity: have not demonstrated toxicities
[5]; clinical trials, tapered off over 1 to 2 weeks
  withdrawal symptoms after cessation: no reports of withdrawal symptoms
[5]; completed placebo-controlled Phase 1, 2, and 3 studies
  subjects who developed elevated LFTs (>3x ULN AST and/or ALT): 0.32%
[5]; development program overall
  ECG intervals, vital signs, physical or neurological examinations: no clinically significant trends
[5]; ganaxolone and its metabolites
  excretion to breast milk: excreted to breast milk
[6]; human plasma, oral administration, Nohria and Giller 2007
  half-life: approximately 20 hours
[6]; in contrast to allopregnanolone
  oral bioavailability: orally bioavailable
[6]; in vivo
  Tmax: short
[1]; after IV GNX bolus 0.64 mg/kg
  time to improvement on EEG: ≤ 10 min
[1]; four weeks after discharge, on oral GNX, 20 seizures per day at baseline
  clinical seizures after hospitalization: no clinical seizures
[1]; in vivo, iv
  time of IV GNX until extubation: 48 h
[7]; aqueous with cosolvent or surfactant or cyclodextrin, beta-sulfobutyl-cyclodextrin, 2-hydroxypropylbetacyclodextrin, read-out: concentration dissolved using water soluble beta cyclodextrins
  solubility: > 1000 µg/mL
[7]; water
  solubility in water: insoluble
[8]; IV bolus followed by infusion over 4 days
  day by which clinical and electrographic seizures stopped: ≤ 3 days
[8]; day 5 of protocol, transition from IV to enteric GNX
  video EEG finding (FIG. 3C): cessation of seizures
[8]; from Day 5
  seizure status after transition from IV to enteric GNX: has remained seizure-free
[8]; more than one year later
  durability of response: response to ganaxolone and seizure cessation were sustained
[9]
  action on GABAA receptors in the CNS: positive allosteric modulator
[10]; IV bolus, infusion over 6 days
  day of GNX IV protocol on which midazolam was discontinued: 2 days
[10]; at 6 weeks, transfer from ICU to the floor
  clinical status: alert and was responsive with some vocalizations
[10]; by 4 weeks after admission
  clinical status: more responsive
[10]; with the assistance of phenobarbital loads and maintenance
  day by which ketamine was discontinued: ≤ 8 days
[11]; human, in vivo
  metabolizing enzyme: metabolized by CYP3A⅘
[11]; subjects taking strong CYP inducers (carbamazepine and phenytoin)
  lowering in overall ganaxolone levels and exposure: ~45%
[12]
  suppression of SE: rapid and continued suppression of SE

## CCC1(C)CC(=O)NC1=O (stereo not drawn) [ethoxsuccimide]
[1]
  response of SRSE to treatment given before GNX: No response
